In patent US20240116986A1, “FUSION PEPTIDES CONTAINING DIMERIC ALPHA-HELICES, PEPTIDE-MOLECULARCONJUGATES CONTAINING THE SAME AND NUCLEIC ACID DELIVERY COMPOSITIONSCONTAINING THE SAME” (Artprobio Co., Ltd., priority 2022, published 2024):

Legend:
[1] = test system: linear double-stranded DNA (dsDNA) (7528 base pairs); assay: EMSA of nanostructure formation with dsDNA; type: binding
Procedure: (§1) When a nanostructure was formed through self-assembly by reacting a peptide-molecule conjugate (SAB) with a nucleic acid material (dsDNA or mRNA), agarose gel EMSA was conducted to measure their interactions, binding ratio, stability, etc.
For this, a pTWIN1 plasmid DNA vector was purchased from New England BioLabs (Ipswich, USA), genetically recombined to express a specific protein (Rev), and then linearized with a BamH1 restriction enzyme purchased from the same company to prepare a linear double-stranded DNA (dsDNA) (7528 base pairs). The peptide-molecule conjugates of Examples 1-3 (SAB1 to SAB3) were dispersed in distilled water to prepare 20 μM aqueous solutions. The SAB1 to SAB3 aqueous solutions (20 μM, 50 μL) were sonicated for at least 5 minutes and then immediately added to the dsDNA solution (200 μL). […] A SAB2/dsDNA nanostructure was prepared by incubating the mixture overnight. Then, after centrifuging at 16,100 g for 30 minutes, the nanostructure was resuspended in deionized water. After washing twice, the nanostructure was analyzed by TEM and EMSA.

[2] = Coating of gold nanoparticles (TEM); settings: citrate-modified AuNP aqueous solution
Procedure: Colloidal gold was prepared by reducing HAuCl4 with sodium citrate. 50 mL of a 0.01% HAuCl4 (0.243 mM) aqueous solution was boiled vigorously while stirring in a round-bottom flask equipped with a reflux condenser. Then, 10 mL of a 0.1% sodium citrate aqueous solution (3.4 mM) was added to the boiling HAuCl4 solution. The color of the solution turned from yellow to deep purple and then to wine red within 3 minutes. The mixture was boiled further for 10 minutes and cooled to room temperature while continuously stirring overnight. The concentration of the colloidal gold was determined with a spectrophotometer.
It was investigated whether the gold nanoparticles (AuNP) prepared above are coated with the peptide-molecule conjugates prepared in Examples 1-3 (SAB1 to SAB3). First, the peptide-molecule conjugates of Examples 1-3 (SAB1 to SAB3) were dispersed in distilled water to prepare 20 μM aqueous solutions, respectively. After sonicating the SAB1 to SAB3 aqueous solutions (20 μM, 50 μL) for at least 5 minutes, they were immediately added to the AuNP solution (200 μL), respectively. […] After washing twice, the solution was analyzed by CD and TEM.

EGFP mRNA = assay: EMSA of nanostructure formation with EGFP mRNA; type: binding; settings: EMSA; mRNA concentration fixed; incubated overnight
Procedure: as §1
First, the nucleic acid material of a fixed concentration (100 fmol mRNA) was reacted with the peptide-molecule conjugate (SAB) of various concentrations. Immediately before mixing with the nucleic acid material, the peptide-molecule conjugate (SAB) was sonicated for 5 minutes to prevent self-aggregation. The sonicated peptide-molecule conjugate (SAB, 5 μL) was added to the nucleic acid material ([…]) and a nanostructure was prepared by adding distilled water. The sample was prepared by snap cooling. Specifically, after heating at 70° C. for 10 minutes and snap-cooling on ice, the prepared sample was stored at room temperature. The stored sample was mixed with 2 μL of 60% glycerol. Electrophoresis was performed at 100 V for 60 minutes on 0.8% agarose gel using 1×TBE. The band was observed after staining with SYBR™ Gold nucleic acid gel stain (Invitrogen, Waltham, USA).
After sonicating the peptide-molecule conjugate (SAB-gn, n=1 to 6) aqueous solution for 5 minutes, it was immediately mixed with an EGFP mRNA (200 μL) solution. […] An […] nanostructure was prepared as follows by mixing the peptide-molecule conjugate (SAB-gn, n=1 to 6) with the EGFP mRNA. […] The EGFP mRNA and the peptide-molecule conjugate (SAB-gn, n=1 to 6) were mixed at a charge ratio (+/−) of 0, 0.008, 0.016, 0.031, 0.063, 0.125, 0.25, 0.5, 1, 2, 4, 8, 16, 32 or 50.
After incubating the mixture solution overnight and centrifuging at 16,100 g for 30 minutes, the mixture was resuspended in deionized water. After washing twice, the resulting nanostructure was analyzed by EMSA.
After incubating the mixture solution overnight and centrifuging at 16,100 g for 30 minutes, the mixture was resuspended in deionized water.
After heating the mixed solution for 10 minutes at 70° C., it was immediately snap-cooled on ice. RiboRuler Low Range RNA Ladder and RiboRuler High Range RNA Ladder (Thermo Scientific, Waltham, USA) were used on the two lanes on the left side of agarose gel in order to identify the relative locations of the EGFP mRNA bands. The bands of the RiboRuler Low Range RNA Ladder correspond to 1000, 800, 600, 400, 300, 200 and 100 bases, from top to bottom, and the bands of the RiboRuler High Range RNA Ladder correspond to 6000, 4000, 3000, 2000, 1500, 1000, 500 and 200 bases, from top to bottom. Then, the mixtures with charge ratios (+/−) of 0, 0.031, 0.063, 0.125, 0.25, 0.5, 1, 2, 4, 8 and 16 were loaded in sequence.
After heating the mixed solution for 10 minutes at 70° C., it was immediately snap-cooled on ice. RiboRuler High Range RNA Ladder (Thermo Scientific, Waltham, USA) was used on the left side of agarose gel in order to identify the relative locations of the EGFP mRNA bands. The bands of the RiboRuler High Range RNA Ladder correspond to 6000, 4000, 3000, 2000, 1500, 1000, 500 and 200 bases, from top to bottom. Then, the samples were loaded with charge ratios (+/−) of 00, 0.063, 0.125, 0.25, 0.5, 1, 2, 4, 8, 16 and 32 in sequence.

## Ac-(PEG8)-AELAALEAELAALE-(Ahx)2-K-(Ahx)2-KLAALKAKLAALKAG-(PEG8)-NH2 [SAB2]
[1]
  nanostructure formation with dsDNA: best result
[1]; dsDNA concentration fixed
  charge ratio (+/−) from which delay of EMSA band was observed: 0.031
  charge ratio at which SAB2/dsDNA nanostructure was prepared through self-assembly: 0.5
[2]
  dispersibility of coated gold nanoparticles: precipitates were formed due to aggregation of the gold nanoparticles
EGFP mRNA
  +/− (optimum charge ratio of EGFP mRNA and conjugate showing completely delayed electrophoretic mobility): 30
